Earlier results, collected in patent US7642235B2, “Macrocyclic peptides active against the hepatitis C virus” (Boehringer Ingelheim International GmbH, priority 2003, dated 2010).

System: hepatitis C virus
Settings: two day clinical trial; Nature (2003) 426, p.186-189

In the case of `COc1ccc2c(O[C@@H]3C[C@H]4C(=O)N[C@]5(C(=O)O)C[C@H]5/C=C\CCCCC[C@H](NC(=O)OC5CCCC5)C(=O)N4C3)cc(-c3csc(NC(C)C)n3)nc2c1` [BILN 2061], the “viral loads in patients infected with the hepatitis C virus” value is given as “effective in rapidly reducing viral loads”.
